Results taken from US20040176393A1, “Statin-MMP inhibitor combinations” (priority 1998, published 2004).
Each block holds one compound with its values, some of them ahead of it.

Columns and labels:
Assay type in all cases: biochemical
[1] = target: T1, MMP-2 (Gelatinase A) (Homo sapiens, UniProt P08253); test: thiopeptolide substrate hydrolysis assay, MMP-2; settings: inhibition of hydrolytic activity of the enzyme, read-out: IC50 MMP2
T1 sequence (P08253 110-660): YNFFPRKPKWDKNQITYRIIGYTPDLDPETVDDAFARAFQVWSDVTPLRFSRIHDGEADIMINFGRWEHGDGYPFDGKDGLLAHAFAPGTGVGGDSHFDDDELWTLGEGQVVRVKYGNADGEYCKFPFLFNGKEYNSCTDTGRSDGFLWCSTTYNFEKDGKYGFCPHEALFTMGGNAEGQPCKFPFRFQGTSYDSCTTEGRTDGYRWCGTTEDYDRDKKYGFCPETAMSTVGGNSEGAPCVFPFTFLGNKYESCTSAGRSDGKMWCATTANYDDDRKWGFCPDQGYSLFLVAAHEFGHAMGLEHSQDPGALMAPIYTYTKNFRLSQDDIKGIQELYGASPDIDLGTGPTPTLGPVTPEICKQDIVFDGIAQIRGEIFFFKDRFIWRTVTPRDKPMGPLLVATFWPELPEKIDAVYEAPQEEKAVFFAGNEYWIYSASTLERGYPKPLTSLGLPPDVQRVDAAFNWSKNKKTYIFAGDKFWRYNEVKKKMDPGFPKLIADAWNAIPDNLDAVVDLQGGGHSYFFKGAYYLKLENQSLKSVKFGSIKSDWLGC
Procedure: (§1) The assays measure the amount by which a test compound reduces the hydrolysis of a thiopeptolide substrate caused by a matrix metalloproteinase enzyme.
(§2) Thiopeptolide substrates show virtually no decomposition or hydrolysis in the absence of a matrix metalloproteinase enzyme. A typical thiopeptolide substrate commonly utilized for assays is Ac-Pro-Leu-Gly-thioester-Leu-Leu-Gly-OEt. […] Assays are carried out with and without matrix metalloproteinase inhibitor compounds, and the amount of hydrolysis is compared for a determination of inhibitory activity of the test compounds.

[2] = target: MMP-3 (stromelysin) (Homo sapiens, UniProt P08254); test: thiopeptolide substrate hydrolysis assay, MMP-3; settings: inhibition of hydrolytic activity of the enzyme, read-out: IC50 MMP3
Chain of MMP-3 (stromelysin) (P08254 100-477, species assumed): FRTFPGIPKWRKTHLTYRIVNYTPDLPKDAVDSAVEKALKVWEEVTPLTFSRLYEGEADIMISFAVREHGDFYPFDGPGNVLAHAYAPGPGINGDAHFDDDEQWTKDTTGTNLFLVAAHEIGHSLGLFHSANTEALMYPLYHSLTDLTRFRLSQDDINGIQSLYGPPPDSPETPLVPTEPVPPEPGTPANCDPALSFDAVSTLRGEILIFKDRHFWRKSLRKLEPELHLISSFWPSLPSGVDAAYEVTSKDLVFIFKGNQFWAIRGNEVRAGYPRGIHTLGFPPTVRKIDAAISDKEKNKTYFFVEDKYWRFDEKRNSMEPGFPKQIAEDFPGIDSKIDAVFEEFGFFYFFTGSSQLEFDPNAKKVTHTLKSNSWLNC
Procedure: as §1, §2

[3] = target: T2, MMP-1 (interstitial collagenase) (Homo sapiens, UniProt P03956); test: thiopeptolide substrate hydrolysis assay, MMP-1; settings: inhibition of hydrolytic activity of the enzyme, read-out: IC50 MMP1
T2 sequence (P03956 100-469): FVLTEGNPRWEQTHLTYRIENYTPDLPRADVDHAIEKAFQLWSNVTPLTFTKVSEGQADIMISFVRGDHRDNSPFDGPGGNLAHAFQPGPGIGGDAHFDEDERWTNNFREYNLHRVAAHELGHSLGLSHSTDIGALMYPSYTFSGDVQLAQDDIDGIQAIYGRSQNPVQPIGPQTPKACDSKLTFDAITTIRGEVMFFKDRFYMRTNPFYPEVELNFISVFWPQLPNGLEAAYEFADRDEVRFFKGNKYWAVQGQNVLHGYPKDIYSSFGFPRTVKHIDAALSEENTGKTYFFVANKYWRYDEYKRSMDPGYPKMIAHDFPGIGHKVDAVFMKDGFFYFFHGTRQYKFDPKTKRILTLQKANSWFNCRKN
Procedure: as §1, §2

SMILES: CC(=O)N[C@@H](CC(=O)c1ccc2oc3ccccc3c2c1)C(=O)O [(S)-2-Acetylamino-4-dibenzofuran-2-yl-4-oxo-butyric acid]
IC50 [1]: 160 nM
IC50 [2]: 1550 nM

SMILES: O=C(O)CCC(=O)c1ccc(N2CCC(c3ccccc3)CC2)cc1 [4-Oxo-4-[4-(4-phenyl-piperidin-1-yl)-phenyl]-butyric acid]
IC50 [1]: 1300 nM
IC50 [2]: 140 nM

SMILES: O=C(O)CCC(=NO)c1ccc(-c2ccc(Cl)cc2)cc1 [4-(4′-Chloro-biphenyl-4-yl)-4-hydroxyimino-butyric acid]
IC50 [1]: 390 nM
IC50 [2]: 120 nM

SMILES: N[C@@H](CC(=O)c1ccc2oc3ccccc3c2c1)C(=O)O [(S)-2-Amino-4-dibenzofuran-2-yl-4-oxo-butyric acid]
IC50 [1]: 3800 nM
IC50 [2]: 33000 nM

SMILES: O=C(C[C@H](NC(=O)C(F)(F)F)C(=O)O)c1ccc2oc3ccccc3c2c1 [(S)-4-Dibenzofuran-2-yl-4-oxo-2-(2,2,2-trifluoroacetylamino)-butyric acid]
IC50 [1]: 720 nM
IC50 [2]: 1330 nM

SMILES: O=C(O)[C@H](Cc1ccccc1)NS(=O)(=O)c1ccc(N2CCC(Cc3ccccc3)CC2)cc1 [(S)-2-[4-(4-Benzyl-piperidin-1-yl)-benzenesulfonyl-amino]-3-phenyl-propionic acid]
IC50 [1]: 88 nM
IC50 [2]: 21 nM

SMILES: O=C(CCC(=O)c1ccc(N2CCC(c3ccccc3)CC2)cc1)NO [N-Hydroxy-4-oxo-4-[4-(4-phenyl-piperidin-1-yl)-phenyl]-butyramide]
IC50 [1]: 40 nM
IC50 [2]: 20 nM

SMILES: O=C(O)[C@H](CCc1ccccc1)NS(=O)(=O)c1ccc2oc3ccccc3c2c1 [(S)-2-(Dibenzofuran-2-sulfonylamino)-4-phenyl-butyric acid]
IC50 [1]: 265 nM
IC50 [2]: 460 nM

SMILES: CC(C)C[C@H](NS(=O)(=O)c1ccc2oc3ccccc3c2c1)C(=O)O [(L)-2-(Dibenzofuran-2-sulfonylamino)-4-methyl-pentanoic acid]
IC50 [1]: 320 nM
IC50 [2]: 1180 nM

SMILES: COc1ccc(N2CCN(c3ccc(S(=O)(=O)N[C@@H](Cc4ccccc4)C(=O)O)cc3)CC2)cc1 [(S)-2-{4-[-4-(4-Methoxy-phenyl)-piperazin-1-yl]-benzenesulfonylamino}-3-phenyl-propionic acid]
IC50 [1]: 33 nM
IC50 [2]: 14 nM

SMILES: O=C(O)[C@H](Cc1ccccc1)NS(=O)(=O)c1ccc(N2CCC(c3ccccc3)CC2)cc1 [(S)-3-Phenyl-2-[4-(4-phenyl-piperidin-1-yl)-benzene-sulfonylamino]-propionic acid]
IC50 [1]: 220 nM
IC50 [2]: 14 nM

SMILES: CC(C)[C@H](NS(=O)(=O)c1ccc(-c2ccc([N+](=O)[O-])cc2)cc1)C(=O)O [(S)-3-Methyl-2-(4′-nitro-biphenyl-4-sulfonylamino)-butyric acid]
IC50 [2]: 100 nM

SMILES: O=C(O)[C@H](CS)NS(=O)(=O)c1ccc2oc3ccccc3c2c1 [(L)-2-(Dibenzofuran-2-sulfonylamino)-3-mercapto-propionic acid]
IC50 [1]: 4450 nM
IC50 [2]: 690 nM

SMILES: CNC(=O)[C@@H](NC(=O)[C@@H](CC(=O)NO)CC(C)C)C(C)(C)C [RO-31-9790, reference compound]
IC50 [3]: 5.5 nM
IC50 [1]: 6 nM
IC50 [2]: 470 nM

SMILES: CC(C)[C@H](NS(=O)(=O)c1ccc2oc3ccccc3c2c1)C(=O)O [(L)-2-(Dibenzofuran-2-sulfonylamino)-3-methyl-butyric acid]
IC50 [1]: 84 nM
IC50 [2]: 230 nM

SMILES: O=C(O)[C@H](CSC(c1ccccc1)(c1ccccc1)c1ccccc1)NS(=O)(=O)c1ccc2oc3ccccc3c2c1 [(L)-2-(Dibenzofuran-2-sulfonylamino)-3-tritylsulfanyl-propionic acid]
IC50 [1]: 9400 nM
IC50 [2]: 14400 nM

SMILES: O=C(CCc1ccccc1)N[C@@H](CC(=O)c1ccc2oc3ccccc3c2c1)C(=O)O [(S)-4-Dibenzofuran-2-yl-4-oxo-2-(3-phenyl-propionylamino)-butyric acid]
IC50 [1]: 96 nM
IC50 [2]: 280 nM

SMILES: O=C(O)CCC(O)c1ccc(-c2ccc(Cl)cc2)cc1 (racemic) [(±)-4-(4′-Chloro-biphenyl-4-yl)-4-hydroxy-butyric acid]
IC50 [1]: 150 nM
IC50 [2]: 280 nM

SMILES: O=C(O)CCC(=NO)c1ccc(-c2ccc(Br)cc2)cc1 [4-(4′-Bromo-biphenyl-4-yl)-4-hydroxyimino-butyric acid]
IC50 [1]: 58 nM
IC50 [2]: 110 nM

SMILES: O=C(CNS(=O)(=O)c1ccc(N2CCC(c3ccccc3)CC2)cc1)NO [N-Hydroxy-2-[4-(4-phenyl-piperidin-1-yl)-benzene-sulfonylamino]-acetamide]
IC50 [1]: 810 nM
IC50 [2]: 19 nM

SMILES: O=C(Cc1ccccc1)N[C@@H](CC(=O)c1ccc2oc3ccccc3c2c1)C(=O)O [(S)-4-Dibenzofuran-2-yl-4-oxo-2-phenylacetylamino-butyric acid]
IC50 [1]: 84 nM
IC50 [2]: 330 nM

SMILES: CN(C)N=C(CCC(=O)O)c1ccc(-c2ccc(Cl)cc2)cc1 [4-(4′-Chloro-biphenyl-4-yl)-4-(dimethylhydrazono)-butyric acid]
IC50 [1]: 730 nM
IC50 [2]: 930 nM

SMILES: O=C(O)CCC(=O)c1ccc(N2CCN(c3ccccc3)CC2)cc1 [4-Oxo-4-[4-(4-phenyl-piperazin-1-yl)-phenyl]-butyric acid]
IC50 [1]: 1600 nM
IC50 [2]: 250 nM

SMILES: O=C(O)[C@H](Cc1ccccc1)NS(=O)(=O)c1ccc(-c2ccc(Br)cc2)cc1 [(S)-2-(4′-Bromo-biphenyl-4-sulfonylamino)-3-phenyl-propionic acid]
IC50 [1]: 26 nM

SMILES: O=C(O)CNS(=O)(=O)c1ccc(N2CCC(c3ccccc3)CC2)cc1 [[4-(4-Phenyl-piperidin-1-yl)-benzenesulfonylamino]-acetic acid]
IC50 [1]: 210 nM
IC50 [2]: 20 nM

SMILES: O=C(O)[C@H](Cc1ccccc1)NS(=O)(=O)c1ccc2oc3ccccc3c2c1 [(L)-2-(Dibenzofuran-2-sulfonylamino)-3-phenyl-propionic acid]
IC50 [1]: 890 nM
IC50 [2]: 720 nM

IC50 [2]: 20 nM
SMILES: CC(C)CC(CC(=O)NO)C(=O)N[C@@H](CC(C)C)C(=O)N[C@@H](Cc1ccccc1)C(N)=O (stereo partly shown) [U24522, reference compound]
